Legend:
[1] = Chemical inhibition assay, glucuronidation of PI-103 in pooled HLM; format: in vitro ADME, human
[2] = Chemical inhibition assay, phase I metabolism of PI-103 in pooled HLM; format: in vitro ADME, human; settings: inhibitor 0.1 μM (CYP1A2 inhibitor)

| Structure (SMILES) | activity of PI-103 glucuronidation in HLM ([1]; inhibitor 10 μM) | other results |
| --- | --- | --- |
| C[C@H](CCC(=O)O)[C@H]1CC[C@H]2[C@@H]3[C@H](O)C[C@@H]4C[C@H](O)CC[C@]4(C)[C@H]3CC[C@]12C [CDCA] | – | activity of PI-103 glucuronidation in HLM ([1]; inhibitor 20 μM): no changes |
| CN(C)CCC=C1c2ccccc2CCc2ccccc21 [amitriptyline] | no changes | – |
| C[C@]12CC[C@@H](O)C[C@@H]1CC[C@@H]1[C@@H]2CC[C@]2(C)C(=O)CC[C@@H]12 [androsterone] | 69.36 % of the control values | – |
| Cc1cn(-c2cc(NC(=O)c3ccc(C)c(Nc4nccc(-c5cccnc5)n4)c3)cc(C(F)(F)F)c2)cn1 [nilotinib] | 82.37 % of the control values | – |
| O=c1cc(-c2ccccc2)oc2c1ccc1ccccc12 [α-naphthoflavone] | – | remaining activity of PI-103 phase I metabolism in HLM [2]: 53.37 % of the control values |

— publication PMC9050161 (RSC Advances, 2020)
